The results in this text go back to the Kinase Knowledgebase extract (Sharma et al. 2016).

A word on the pIC50: it is −log10 of the IC50, conventionally taken in molar units. Broadly, the pKi is −log10 of the Ki, conventionally taken in molar units.

pIC50, pKi: −log10 of the molar value.

Holding throughout (assay): Enzyme Assay
The target of experiment [1] is PIK3CA (human) (UniProt P42336).
In experiment [2] the target is PIK3CD (Human) (UniProt O00329).
The target of experiment [3] is PIK3CG (human) (UniProt P48736).
For experiment [4], the target named is PIK3CB (Human) (UniProt P42338).
PIK3CB (Human), sequence (P42338 whole entry, looked up): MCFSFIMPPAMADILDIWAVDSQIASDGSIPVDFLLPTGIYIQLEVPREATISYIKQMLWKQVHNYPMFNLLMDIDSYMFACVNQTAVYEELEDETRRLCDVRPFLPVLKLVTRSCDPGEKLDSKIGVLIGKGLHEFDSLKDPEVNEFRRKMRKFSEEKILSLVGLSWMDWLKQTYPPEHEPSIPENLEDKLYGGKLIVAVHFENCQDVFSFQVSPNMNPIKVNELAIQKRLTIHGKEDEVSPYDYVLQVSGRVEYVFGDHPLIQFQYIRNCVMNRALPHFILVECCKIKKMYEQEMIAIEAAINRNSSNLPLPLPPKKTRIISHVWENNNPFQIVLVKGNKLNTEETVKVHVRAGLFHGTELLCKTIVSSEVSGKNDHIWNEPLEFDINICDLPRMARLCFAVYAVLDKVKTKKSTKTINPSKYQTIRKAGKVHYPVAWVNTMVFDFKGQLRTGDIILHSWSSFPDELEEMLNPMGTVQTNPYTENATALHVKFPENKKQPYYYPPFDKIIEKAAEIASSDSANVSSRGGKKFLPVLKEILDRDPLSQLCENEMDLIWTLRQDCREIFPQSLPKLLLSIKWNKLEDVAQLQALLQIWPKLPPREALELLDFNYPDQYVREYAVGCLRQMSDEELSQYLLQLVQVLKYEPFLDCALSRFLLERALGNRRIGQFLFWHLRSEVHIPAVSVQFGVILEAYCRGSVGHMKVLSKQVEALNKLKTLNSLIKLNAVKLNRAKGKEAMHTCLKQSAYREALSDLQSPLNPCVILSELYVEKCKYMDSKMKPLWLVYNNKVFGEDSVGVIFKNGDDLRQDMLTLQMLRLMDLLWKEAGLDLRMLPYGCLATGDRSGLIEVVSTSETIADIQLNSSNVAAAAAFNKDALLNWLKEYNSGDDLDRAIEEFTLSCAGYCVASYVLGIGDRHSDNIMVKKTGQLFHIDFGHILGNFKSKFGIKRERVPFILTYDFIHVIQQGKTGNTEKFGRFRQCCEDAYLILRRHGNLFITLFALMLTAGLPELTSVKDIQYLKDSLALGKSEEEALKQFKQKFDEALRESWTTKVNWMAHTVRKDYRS

PIK3CD (Human), sequence (O00329 whole entry, looked up): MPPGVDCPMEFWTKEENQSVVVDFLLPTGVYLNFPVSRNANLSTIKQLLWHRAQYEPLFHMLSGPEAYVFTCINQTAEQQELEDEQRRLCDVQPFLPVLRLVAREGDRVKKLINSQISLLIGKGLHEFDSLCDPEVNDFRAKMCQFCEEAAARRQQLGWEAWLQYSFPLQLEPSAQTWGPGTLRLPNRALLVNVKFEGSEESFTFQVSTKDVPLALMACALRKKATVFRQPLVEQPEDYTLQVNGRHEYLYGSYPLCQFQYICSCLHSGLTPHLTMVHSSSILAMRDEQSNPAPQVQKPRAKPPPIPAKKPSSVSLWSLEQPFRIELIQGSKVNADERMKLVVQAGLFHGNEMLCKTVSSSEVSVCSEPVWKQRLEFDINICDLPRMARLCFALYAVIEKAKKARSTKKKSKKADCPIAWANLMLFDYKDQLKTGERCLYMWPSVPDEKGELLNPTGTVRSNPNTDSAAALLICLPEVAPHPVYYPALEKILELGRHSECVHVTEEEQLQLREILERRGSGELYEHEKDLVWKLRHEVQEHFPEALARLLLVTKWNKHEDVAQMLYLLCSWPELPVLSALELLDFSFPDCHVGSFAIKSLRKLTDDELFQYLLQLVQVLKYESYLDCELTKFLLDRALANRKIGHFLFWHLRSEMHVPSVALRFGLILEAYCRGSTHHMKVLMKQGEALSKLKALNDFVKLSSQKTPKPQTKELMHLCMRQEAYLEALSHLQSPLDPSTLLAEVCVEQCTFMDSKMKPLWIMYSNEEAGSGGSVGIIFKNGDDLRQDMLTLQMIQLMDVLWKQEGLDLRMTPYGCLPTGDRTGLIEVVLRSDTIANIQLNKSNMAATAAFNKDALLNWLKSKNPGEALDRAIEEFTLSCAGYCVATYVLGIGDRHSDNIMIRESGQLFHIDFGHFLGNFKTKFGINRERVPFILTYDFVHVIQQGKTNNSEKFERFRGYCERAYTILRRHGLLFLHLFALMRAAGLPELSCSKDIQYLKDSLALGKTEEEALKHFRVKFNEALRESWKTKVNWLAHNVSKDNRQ
PIK3CA (human), sequence (P42336 whole entry, looked up): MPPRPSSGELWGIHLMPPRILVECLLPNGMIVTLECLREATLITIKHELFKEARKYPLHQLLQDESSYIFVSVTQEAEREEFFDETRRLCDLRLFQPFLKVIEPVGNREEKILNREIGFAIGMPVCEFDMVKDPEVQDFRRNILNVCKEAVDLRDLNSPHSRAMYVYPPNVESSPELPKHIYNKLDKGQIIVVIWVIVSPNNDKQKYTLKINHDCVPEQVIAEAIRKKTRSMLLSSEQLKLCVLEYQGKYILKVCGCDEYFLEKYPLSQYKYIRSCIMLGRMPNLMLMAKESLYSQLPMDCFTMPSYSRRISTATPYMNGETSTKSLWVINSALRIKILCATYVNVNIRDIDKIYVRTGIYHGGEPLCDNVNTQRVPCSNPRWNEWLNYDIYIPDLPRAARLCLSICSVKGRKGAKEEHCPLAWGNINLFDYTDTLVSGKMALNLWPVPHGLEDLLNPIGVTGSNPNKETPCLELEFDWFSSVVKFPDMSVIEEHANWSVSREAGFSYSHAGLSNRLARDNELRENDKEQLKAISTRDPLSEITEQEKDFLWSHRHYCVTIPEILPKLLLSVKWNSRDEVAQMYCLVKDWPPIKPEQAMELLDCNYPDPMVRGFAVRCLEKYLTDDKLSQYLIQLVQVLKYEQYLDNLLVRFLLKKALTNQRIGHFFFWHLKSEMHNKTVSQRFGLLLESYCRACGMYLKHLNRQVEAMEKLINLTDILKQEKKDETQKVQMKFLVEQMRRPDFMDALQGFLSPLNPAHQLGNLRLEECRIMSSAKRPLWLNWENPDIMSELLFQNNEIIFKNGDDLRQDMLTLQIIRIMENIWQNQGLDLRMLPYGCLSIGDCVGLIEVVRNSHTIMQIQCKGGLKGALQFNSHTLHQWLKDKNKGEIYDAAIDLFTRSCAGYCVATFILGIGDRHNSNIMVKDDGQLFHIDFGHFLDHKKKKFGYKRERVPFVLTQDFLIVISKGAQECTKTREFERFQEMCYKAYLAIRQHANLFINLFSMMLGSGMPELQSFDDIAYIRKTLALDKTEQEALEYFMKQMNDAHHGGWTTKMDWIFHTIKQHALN
PIK3CG (human), sequence (P48736 whole entry, looked up): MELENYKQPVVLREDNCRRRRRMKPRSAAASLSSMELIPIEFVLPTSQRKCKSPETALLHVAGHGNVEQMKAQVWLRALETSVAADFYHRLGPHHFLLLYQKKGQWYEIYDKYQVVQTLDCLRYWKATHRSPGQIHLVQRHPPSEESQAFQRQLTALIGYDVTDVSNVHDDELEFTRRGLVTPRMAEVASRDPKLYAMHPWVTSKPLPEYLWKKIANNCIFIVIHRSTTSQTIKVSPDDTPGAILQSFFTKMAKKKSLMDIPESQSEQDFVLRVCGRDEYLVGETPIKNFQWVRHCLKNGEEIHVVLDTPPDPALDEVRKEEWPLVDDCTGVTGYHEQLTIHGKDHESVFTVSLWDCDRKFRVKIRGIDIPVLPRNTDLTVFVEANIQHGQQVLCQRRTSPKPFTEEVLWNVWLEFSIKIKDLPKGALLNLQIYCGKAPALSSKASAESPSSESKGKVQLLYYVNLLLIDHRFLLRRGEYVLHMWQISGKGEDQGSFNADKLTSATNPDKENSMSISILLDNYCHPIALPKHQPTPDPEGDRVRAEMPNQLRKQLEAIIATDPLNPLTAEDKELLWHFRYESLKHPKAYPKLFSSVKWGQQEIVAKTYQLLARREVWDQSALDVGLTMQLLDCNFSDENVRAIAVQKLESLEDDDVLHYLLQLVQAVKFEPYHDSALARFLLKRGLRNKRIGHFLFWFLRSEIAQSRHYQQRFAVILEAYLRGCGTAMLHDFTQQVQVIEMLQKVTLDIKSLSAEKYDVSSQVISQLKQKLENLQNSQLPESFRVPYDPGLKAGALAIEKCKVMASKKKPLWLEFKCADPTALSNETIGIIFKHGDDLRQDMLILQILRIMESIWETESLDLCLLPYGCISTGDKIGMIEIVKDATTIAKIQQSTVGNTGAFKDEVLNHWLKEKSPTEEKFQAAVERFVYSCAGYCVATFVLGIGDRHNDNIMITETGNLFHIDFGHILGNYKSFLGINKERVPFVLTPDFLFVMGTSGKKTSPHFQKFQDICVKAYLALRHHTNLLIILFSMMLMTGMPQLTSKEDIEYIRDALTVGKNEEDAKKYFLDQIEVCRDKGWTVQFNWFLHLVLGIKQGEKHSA

With `CC(C)n1nccc1C(=O)Nc1cc(-c2cccc3[nH]ccc23)cc2[nH]ncc12`, the pIC50 in experiment [1] is < 4.60; in experiment [2], 6.00; in experiment [3] it was 4.70; in experiment [4], < 4.60.
Take `Cc1nc(C(=O)Nc2cc(-c3cnc(Cl)c(CS(=O)(=O)c4ccccc4)c3)cc3[nH]ncc23)cs1`: the pIC50 in experiment [1] was 4.60; in experiment [2] it was 6.00; in experiment [3], < 4.60; in experiment [4], 4.70.
For `COc1ncc(-c2cc(NC(=O)c3csc(C)n3)c3cn[nH]c3c2)cc1NS(C)(=O)=O` the same measures were 6.10, 7.90, 6.70 and 6.10.
In the case of `C[C@@H]1CN(Cc2nc(C(=O)Nc3cc(-c4cccc5[nH]ccc45)cc4[nH]ncc34)cs2)C[C@H](C)O1`, the pIC50 in experiment [1] was 4.90; in experiment [2], 8.70; in experiment [3], 5.60; in experiment [4], 5.30.
As to `Cc1nc(C(=O)Nc2cc(-c3cc(F)cc4[nH]ccc34)cc3[nH]ncc23)cs1`, the pIC50 was 4.90 in experiment [1], 7.80 in experiment [2], 5.50 in experiment [3] and 5.50 in experiment [4].
Consider `O=C(Nc1cc(-c2cccc3[nH]ccc23)cc2[nH]ncc12)c1ccccn1`, for which the pIC50 in experiment [1] was 5.00; in experiment [2], 7.00; in experiment [3] it was 5.20; in experiment [4], 5.20. In experiment [2], this molecule had a pKi of 7.30.
In the case of `Cc1nc(C(=O)Nc2cc(-c3cccc(O)c3)cc3[nH]ncc23)cs1`, the pIC50 in experiment [1] was 4.80; in experiment [2], 6.50; in experiment [3], 4.90; in experiment [4] it was 5.10.
Taken in the same sequence, the figures for `Cc1cccc(C(=O)Nc2cc(-c3cccc4[nH]ccc34)cc3[nH]ncc23)n1` were 4.70, 7.80, 6.10 and 5.50.
Consider `Cc1nc(C(=O)Nc2cc(-c3cccc4[nH]ncc34)cc3[nH]ncc23)cs1`, for which the pIC50 in experiment [1] was < 4.60; in experiment [2] it was 6.50; in experiment [3], 5.20; in experiment [4], < 4.60.
